Read-outs that look alike come from different tables or passages of the source.
System: TG-I m RNA
Experiment: Expression amounts of TG-I mRNA by RT-PCR in cultured corneal epithelial cells (G3PDH internal standard)
Format: cell-based, human
Settings: for inhibition at 1 µM: read-out: inhibition (of TG-I m RNA expression)
Experimental: Glyceraldehyde-3-phosphoric acid dehydrogenase (G3PDH) was used as an internal standard in consideration of scatter of template total RNA amounts.
Cultured SV40 immortalized human corneal epithelial cells (1 × 10^6 cells) were cultured in a culture medium (DMEM/F12) containing a test compound under a condition of 37°C and 5% CO2 for 72 hours. After culturing, total RNA was extracted according to the AGPC method. Then, RT-PCR was carried out using a primer which is specific for TG-I m RNA or G3PDH m RNA using a Takara RNA-PCR kit (AMV). PCR products were electrophoresed on 1% agarose gel, and bands were detected with a transilluminator. Cells cultured in a culture medium containing no test compound in the same manner were used as a control.
The expression amounts of TG-I m RNA were calculated according to the following equation 1 so that an expression amount in the control was 100. Expression amount = (B/A) × 100 [formula] • A: A band area of a TG-I amplified fragment on the basis of a band area of a G3PDH amplified fragment in the control • B: A band area of a TG-I amplified fragment on the basis of a band area of a G3PDH amplified fragment in the presence of the test compound

Structure (SMILES)	mrna remaining at 1 µM (Homo sapiens, Corneal epithelial cell, 72 h, read-out: Expression amount)	mrna remaining at 1 µM (Homo sapiens, Corneal epithelial cell, 72 h, read-out: expression amounts of TG-I m RNA in the corneal epithelial cells)	inhibition at 1 µM (Homo sapiens, Corneal epithelial cell, 72 h)	inhibitory effect relative to that of 1α , 24 (R)-dihydroxyvitamin D3 (comparative compound at 1000 nM)	inhibition of TG-I m RNA expression, dependence on concentration (10 nM, 100 nM and 1000 nM)	mrna remaining at 0.01 µM (Corneal epithelial cell, 10 nM test compound, 72 hours culture, SV40 immortalized human corneal epithelial cells, control = 100, read-out: Expression amount)	mrna remaining at 0.1 µM (Corneal epithelial cell, 100 nM test compound, 72 hours culture, SV40 immortalized human corneal epithelial cells, control = 100, read-out: Expression amount)	mrna remaining at 1 µM (Corneal epithelial cell, 1000 nM test compound, 72 hours culture, SV40 immortalized human corneal epithelial cells, control = 100, read-out: Expression amount)	inhibition at 0.01 µM (Homo sapiens, Corneal epithelial cell, 72 h, concentration of 10 nM)	mrna remaining at 0.01 µM (Homo sapiens, Corneal epithelial cell, 72 h, concentration of 10 nM, relative to control, read-out: expression amounts of TG-I m RNA in the corneal epithelial cells)	inhibition at 0.1 µM (Homo sapiens, Corneal epithelial cell, 72 h, concentration of 100 nM)	mrna remaining at 0.1 µM (Homo sapiens, Corneal epithelial cell, 72 h, concentration of 100 nM, relative to control, read-out: expression amounts of TG-I m RNA in the corneal epithelial cells)	inhibition at 1 µM (Homo sapiens, Corneal epithelial cell, 72 h, concentration of 1000 nM)	mrna remaining at 1 µM (Homo sapiens, Corneal epithelial cell, 72 h, concentration of 1000 nM, relative to control, read-out: expression amounts of TG-I m RNA in the corneal epithelial cells)
C=C1/C(=C\C=C2/CCC[C@]3(C)[C@@H]([C@H](C)CCCC(C)(C)O)CC[C@@H]23)C[C@@H](O)C[C@@H]1O [1α , 25-Dihydroxyvitamin D3]	48%	48%	52%	one tenth or less										
C=C1/C(=C\C=C2/CCC[C@]3(C)[C@@H]([C@H](C)CC[C@@H](O)C(C)C)CC[C@@H]23)C[C@@H](O)C[C@@H]1O [1α , 24 (R)-Dihydroxyvitamin D3]					concentration-dependent inhibition was observed	66%	39%	22%	34%	66%	61%	39%	78%	22%

— patent EP0998931A1, “REMEDIES FOR DRY EYE” (priority 1997, dated 1998)
